Results taken from the supplement of paper PMC5908809.

How the values were obtained:
[1] = system: normal NK cells expanded with K562-aAPC; test: percent inhibition of viability; higher = more inhibition; conditions: 72 h, IL-2 2.5 ng/mL
Protocol: (§1)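 Drug sensitivity and resistance testing on K562-aAPC-expanded normal NK cells: 5 concentrations (10-fold steps over a 10,000-fold range), 72 h at 37 °C, viability by CellTiter-Glo normalised to DMSO and benzethonium chloride controls; DSS from the fitted curve.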

[2] = system: DERL-7 (IL-2 2.5 ng/mL); test: as above; conditions: 72 h
[3] = system: IMC-1 (IL-2 20 ng/mL); test: as above; conditions: 72 h
[4] = system: KAI3 (IL-2 2.5 ng/mL); test: as above; conditions: 72 h
[5] = system: KHYG-1 (IL-2 2.5 ng/mL); test: as above; conditions: 72 h
[6] = system: NK-92 (IL-2 2.5 ng/mL); test: as above; conditions: 72 h
[7] = system: NK-YS (IL-2 2.5 ng/mL); test: as above; conditions: 72 h
[8] = system: NKL (IL-2 2.5 ng/mL); test: as above; conditions: 72 h
[9] = system: SNK-6 (IL-2 2.5 ng/mL); test: as above; conditions: 72 h
[10] = system: YT (IL-2 2.5 ng/mL); test: as above; conditions: 72 h
[11] = system: normal primary NK cells, pool 1 (3 donors) (IL-2 2.5 ng/mL); test: as above; conditions: 72 h
[12] = system: normal primary NK cells, pool 1 (3 donors), resting (IL-2 0 ng/mL); test: as above; conditions: 72 h
[13] = system: normal primary NK cells, pool 2 (3 donors) (IL-2 2.5 ng/mL); test: as above; conditions: 72 h
[14] = system: normal primary NK cells, pool 3 (3 donors) (IL-2 2.5 ng/mL); test: as above; conditions: 72 h
[15] = system: normal NK cells expanded with K562-aAPC; test: drug sensitivity score (DSS) (DSS units); higher = more sensitive; extreme values may be limits of the assay; conditions: 72 h; IL-2 2.5 ng/mL
Protocol: as §1

[16] = system: DERL-7 (IL-2 2.5 ng/mL); test: as above; conditions: 72 h
[17] = system: IMC-1 (IL-2 20 ng/mL); test: as above; conditions: 72 h
[18] = system: KAI3 (IL-2 2.5 ng/mL); test: as above; conditions: 72 h
[19] = system: KHYG-1 (IL-2 2.5 ng/mL); test: as above; conditions: 72 h
[20] = system: NK-92 (IL-2 2.5 ng/mL); test: as above; conditions: 72 h
[21] = system: NK-YS (IL-2 2.5 ng/mL); test: as above; conditions: 72 h
[22] = system: NKL (IL-2 2.5 ng/mL); test: as above; conditions: 72 h
[23] = system: SNK-6 (IL-2 2.5 ng/mL); test: as above; conditions: 72 h
[24] = system: YT (IL-2 2.5 ng/mL); test: as above; conditions: 72 h
[25] = system: normal primary NK cells, pool 1 (3 donors) (IL-2 2.5 ng/mL); test: as above; conditions: 72 h
[26] = system: normal primary NK cells, pool 1 (3 donors), resting (IL-2 0 ng/mL); test: as above; conditions: 72 h
[27] = system: normal primary NK cells, pool 2 (3 donors) (IL-2 2.5 ng/mL); test: as above; conditions: 72 h
[28] = system: normal primary NK cells, pool 3 (3 donors) (IL-2 2.5 ng/mL); test: as above; conditions: 72 h

CCCCc1nc2cc(/C=C/C(=O)NO)ccc2n1CCN(CC)CC [Pracinostat] (max concentration tested 10000 nM)
percent inhibition of viability [%]
Conditions | 1 nM | 10 nM | 100 nM | 1000 nM | 10000 nM
[1] | 1.37 | 8.83 | 23.6 | 100 | 101
[2] | 1.33 | -8.53 | 21.4 | 100 | 100
[3] | -2.79 | 2.79 | 10 | 100 | 101
[4] | -0.25 | 10.9 | 59.8 | 100 | 106
[5] | 0.14 | -0.26 | 26.9 | 103 | 107
[6] | 0.01 | -2.17 | 42.9 | 103 | 107
[7] | -2.5 | 3.97 | 26.5 | 93.4 | 106
[8] | -9.49 | 12.2 | 57 | 92.3 | 105
[9] | -6.98 | 1.26 | 17.8 | 96.5 | 100
[10] | 2.35 | -0.3 | 12.7 | 100 | 105
[11] | -0.69 | -4.78 | 22.1 | 96.7 | 97.5
[12] | 0.06 | -6.1 | 49.2 | 86.2 | 90.8
[13] | -8.41 | -3.58 | 22.6 | 94.5 | 94.8
[14] | -9.56 | -4.29 | 13.1 | 97.8 | 98.9

Conditions | drug sensitivity score
[15] | 21.7
[16] | 21.4
[17] | 19.6
[18] | 25.4
[19] | 22.1
[20] | 23.6
[21] | 20.3
[22] | 24.6
[23] | 20.1
[24] | 20.1
[25] | 21.1
[26] | 22.5
[27] | 20.6
[28] | 19.9
